Experiments:
Assay in all cases: cells
Settings in all cases: Homo sapiens
T84 = assay type: functional, cell-based;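 also: growth inhibition measured with a cell viability readout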
Description: SANGER: Inhibition of human T84 cell growth in a cell viability assay.

SW13 = assay type: functional, cell-based;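 also: IC50 is inhibition of SW13 cell growth, read out with a cell viability assay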
Description: SANGER: Inhibition of human SW13 cell growth in a cell viability assay.

WM-115 = assay type: functional, cell-based
Description: SANGER: Inhibition of human WM-115 cell growth in a cell viability assay.

COLO-679 = assay type: functional, cell-based
Description: SANGER: Inhibition of human COLO-679 cell growth in a cell viability assay.

HCC 2998 = assay type: functional, cell-based;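 also: growth inhibition of human HCC2998 cells, measured with a cell viability read-out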
Description: SANGER: Inhibition of human HCC2998 cell growth in a cell viability assay.

SW1417 = assay type: functional, cell-based;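 also: growth inhibition of human SW1417 cells, read out with a cell viability assay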
Description: SANGER: Inhibition of human SW1417 cell growth in a cell viability assay.

PC-3 = assay type: functional, cell-based;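 also: cell viability assay measuring growth inhibition of PC-3 cells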
Description: SANGER: Inhibition of human PC-3 cell growth in a cell viability assay.

HuP-T4 = assay type: functional, cell-based;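 also: cell viability assay measuring how much HuP-T4 cell growth is inhibited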
Description: SANGER: Inhibition of human HuP-T4 cell growth in a cell viability assay.

SK-MEL-30 = assay type: functional, cell-based;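 also: growth inhibition of SK-MEL-30 cells, determined with a cell viability assay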
Description: SANGER: Inhibition of human SK-MEL-30 cell growth in a cell viability assay.

LK-2 = assay type: functional, cell-based;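 also: growth inhibition of LK-2 cells, read out with a viability assay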
Description: SANGER: Inhibition of human LK-2 cell growth in a cell viability assay.

NCI-H2342 = assay type: functional, cell-based;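 also: growth inhibition of the cancer cell line, determined with a cell viability assay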
Description: SANGER: Inhibition of human NCI-H2342 cell growth in a cell viability assay.

HCC1419 = assay type: functional, cell-based;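 also: growth inhibition of human HCC1419 cells, read out as cell viability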
Description: SANGER: Inhibition of human HCC1419 cell growth in a cell viability assay.

COLO-741 = assay type: functional, cell-based
Description: SANGER: Inhibition of human COLO-741 cell growth in a cell viability assay.

DBTRG-05MG = assay type: functional, cell-based;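 also: cell viability assay measuring growth inhibition of human DBTRG-05MG cells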
Description: SANGER: Inhibition of human DBTRG-05MG cell growth in a cell viability assay.

COR-L105 = assay type: functional, cell-based;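 also: cell growth inhibition determined with a viability assay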
Description: SANGER: Inhibition of human COR-L105 cell growth in a cell viability assay.

BCPAP = assay type: functional, cell-based;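 also: growth inhibition of BCPAP cells, read out in a cell viability assay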
Description: SANGER: Inhibition of human BCPAP cell growth in a cell viability assay.

MEL-HO = assay type: functional, cell-based
Description: SANGER: Inhibition of human MEL-HO cell growth in a cell viability assay.

GMS-10 = assay type: functional, cell-based;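 also: growth inhibition of GMS-10 cells, read out as cell viability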
Description: SANGER: Inhibition of human GMS-10 cell growth in a cell viability assay.

CAL-120 = assay type: functional, cell-based;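 also: cell growth inhibition, read out as cell viability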
Description: SANGER: Inhibition of human CAL-120 cell growth in a cell viability assay.

NCI-H727 = assay type: functional, cell-based;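 also: growth inhibition of human NCI-H727 cells, read out with a cell viability assay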
Description: SANGER: Inhibition of human NCI-H727 cell growth in a cell viability assay.

SKG-IIIa = assay type: functional, cell-based;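 also: cell growth inhibition, read out with a cell viability assay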
Description: SANGER: Inhibition of human SKG-IIIa cell growth in a cell viability assay.

HuCCT-1 = assay type: functional, cell-based, HuCCT1;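 also: growth inhibition of HuCCT-1 cells, read out by a cell viability assay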
Description: SANGER: Inhibition of human HuCCT1 cell growth in a cell viability assay.

PANC-03-27 = assay type: functional, cell-based
Description: SANGER: Inhibition of human PANC-03-27 cell growth in a cell viability assay.

IGR-1 = assay type: functional, cell-based;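 also: growth inhibition of human IGR-1 cells, read out with a cell viability assay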
Description: SANGER: Inhibition of human IGR-1 cell growth in a cell viability assay.

A-427 = assay type: functional, cell-based;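 also: growth inhibition of human A-427 cells, read out by a cell viability assay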
Description: SANGER: Inhibition of human A427 cell growth in a cell viability assay.

EFO-21 = assay type: functional, cell-based;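 also: growth inhibition of EFO-21 cells measured with a viability assay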
Description: SANGER: Inhibition of human EFO-21 cell growth in a cell viability assay.

FaDu = assay type: functional, cell-based;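 also: cell viability readout of growth inhibition in FaDu cells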
Description: SANGER: Inhibition of human FADU cell growth in a cell viability assay.

RCM-1 = assay type: functional, cell-based;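 also: growth inhibition of the RCM-1 line, determined with a cell viability readout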
Description: SANGER: Inhibition of human RCM-1 cell growth in a cell viability assay.

ACHN = assay type: functional, cell-based;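 also: cell viability read-out used to gauge how strongly growth of human ACHN cells is suppressed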
Description: SANGER: Inhibition of human ACHN cell growth in a cell viability assay.

KU-19-19 = assay type: functional, cell-based
Description: SANGER: Inhibition of human KU-19-19 cell growth in a cell viability assay.

NCI-H441 = assay type: functional, cell-based;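 also: growth inhibition of NCI-H441 cells, read out with a cell viability assay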
Description: SANGER: Inhibition of human NCI-H441 cell growth in a cell viability assay.

Daoy = assay type: functional, cell-based;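 also: daoy cell growth inhibition, read out as cell viability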
Description: SANGER: Inhibition of human Daoy cell growth in a cell viability assay.

BPH-1 = assay type: functional, cell-based;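 also: cell viability assay measuring growth inhibition of human BPH-1 cells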
Description: SANGER: Inhibition of human BPH-1 cell growth in a cell viability assay.

VM-CUB-1 = assay type: functional, cell-based;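 also: cell viability assay measuring growth inhibition of the human VM-CUB-1 cell line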
Description: SANGER: Inhibition of human VM-CUB-1 cell growth in a cell viability assay.

CAKI-1 = assay type: functional, cell-based;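 also: growth inhibition of CAKI-1 cells, measured by a cell viability assay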
Description: SANGER: Inhibition of human CAKI-1 cell growth in a cell viability assay.

CAPAN-1 = assay type: functional, cell-based;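 also: growth suppression of CAPAN-1 cells, read out by a cell viability assay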
Description: SANGER: Inhibition of human CAPAN-1 cell growth in a cell viability assay.

NCI-H630 = assay type: functional, cell-based;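 also: growth inhibition of NCI-H630 cells, read out with a cell viability assay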
Description: SANGER: Inhibition of human NCI-H630 cell growth in a cell viability assay.

OVCAR-5 = assay type: functional, cell-based;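 also: growth inhibition of human OVCAR-5 cells, read out with a cell viability assay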
Description: SANGER: Inhibition of human OVCAR-5 cell growth in a cell viability assay.

HCC1937 = assay type: functional, cell-based;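 also: growth inhibition measured with a cell viability read-out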
Description: SANGER: Inhibition of human HCC1937 cell growth in a cell viability assay.

P12-Ichikawa = assay type: functional, cell-based
NCI-H2170 = assay type: functional, cell-based;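 also: cell viability assay measuring growth inhibition of human NCI-H2170 cancer cells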
Description: SANGER: Inhibition of human NCI-H2170 cell growth in a cell viability assay.

SK-MEL-28 = assay type: functional, cell-based;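 also: growth inhibition of human SK-MEL-28 cells, read out with a cell viability assay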
Description: SANGER: Inhibition of human SK-MEL-28 cell growth in a cell viability assay.

CHL-1 = assay type: functional, cell-based;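 also: cell growth inhibition, read out with a cell viability assay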
Description: SANGER: Inhibition of human CHL-1 cell growth in a cell viability assay.

NB7 = assay type: functional, cell-based;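 also: growth inhibition of NB7 cells, read out with a cell viability assay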
Description: SANGER: Inhibition of human NB7 cell growth in a cell viability assay.

M14 = assay type: functional, cell-based;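 also: growth inhibition of M14 cells, read out with a cell viability assay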
Description: SANGER: Inhibition of human M14 cell growth in a cell viability assay.

BHY = assay type: functional, cell-based;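 also: cell growth inhibition read out by a viability assay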
Description: SANGER: Inhibition of human BHY cell growth in a cell viability assay.

Huh-7 = assay type: functional, cell-based;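 also: HuH-7 cell growth inhibition, read out with a cell viability assay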
Description: SANGER: Inhibition of human HuH-7 cell growth in a cell viability assay.

Panc1005 = assay type: functional, cell-based;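 also: growth inhibition of human PANC-10-05 cells, measured by a cell viability assay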
Description: SANGER: Inhibition of human PANC-10-05 cell growth in a cell viability assay.

MCF7 = assay type: functional, cell-based;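 also: growth inhibition of human MCF7 cells, read out with a cell viability assay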
Description: SANGER: Inhibition of human MCF7 cell growth in a cell viability assay.

KYSE-140 = assay type: functional, cell-based;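 also: cell viability assay measuring growth inhibition in human KYSE-140 cells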
Description: SANGER: Inhibition of human KYSE-140 cell growth in a cell viability assay.

786-0 = assay type: functional, cell-based
Description: SANGER: Inhibition of human 786-0 cell growth in a cell viability assay.

Structure (SMILES): Cn1cc(/C=C2\C(=O)Nc3cccnc32)c2ccccc21
- IC50 (T84): > 2000 nM
- IC50 (SW13): > 2000 nM
- IC50 (WM-115): > 2000 nM
- IC50 (COLO-679): > 2000 nM
- IC50 (HCC 2998): > 2000 nM
- IC50 (SW1417): > 2000 nM
- IC50 (PC-3): > 2000 nM
- IC50 (HuP-T4): > 2000 nM
- IC50 (SK-MEL-30): > 2000 nM
- IC50 (LK-2): > 2000 nM
- IC50 (NCI-H2342): > 2000 nM
- IC50 (HCC1419): > 2000 nM
- IC50 (COLO-741): > 2000 nM
- IC50 (DBTRG-05MG): > 2000 nM
- IC50 (COR-L105): 494 nM
- IC50 (BCPAP): > 2000 nM
- IC50 (MEL-HO): > 2000 nM
- IC50 (GMS-10): > 2000 nM
- IC50 (CAL-120): > 2000 nM
- IC50 (NCI-H727): > 2000 nM
- IC50 (SKG-IIIa): > 2000 nM
- IC50 (HuCCT-1): > 2000 nM
- IC50 (PANC-03-27): > 2000 nM
- IC50 (IGR-1): > 2000 nM
- IC50 (A-427): > 2000 nM
- IC50 (EFO-21): > 2000 nM
- IC50 (FaDu): > 2000 nM
- IC50 (RCM-1): > 2000 nM
- IC50 (ACHN): > 2000 nM
- IC50 (KU-19-19): > 2000 nM
- IC50 (NCI-H441): > 2000 nM
- IC50 (Daoy): > 2000 nM
- IC50 (BPH-1): > 2000 nM
- IC50 (VM-CUB-1): > 2000 nM
- IC50 (CAKI-1): > 2000 nM
- IC50 (CAPAN-1): > 2000 nM
- IC50 (NCI-H630): > 2000 nM
- IC50 (OVCAR-5): > 2000 nM
- IC50 (HCC1937): > 2000 nM
- IC50 (P12-Ichikawa): > 2000 nM
- IC50 (NCI-H2170): > 2000 nM
- IC50 (SK-MEL-28): > 2000 nM
- IC50 (CHL-1): > 2000 nM
- IC50 (NB7): 1980 nM
- IC50 (M14): > 2000 nM
- IC50 (BHY): > 2000 nM
- IC50 (Huh-7): > 2000 nM
- IC50 (Panc1005): > 2000 nM
- IC50 (MCF7): > 2000 nM
- IC50 (KYSE-140): > 2000 nM
- IC50 (786-0): > 2000 nM

Structure (SMILES): O=c1cc(N2CCOCC2)oc2c(-c3cccc4c3sc3ccccc34)cccc12
- IC50 (T84): > 2000 nM
- IC50 (SW13): > 2000 nM
- IC50 (WM-115): > 2000 nM
- IC50 (COLO-679): > 2000 nM
- IC50 (HCC 2998): > 2000 nM
- IC50 (SW1417): > 2000 nM
- IC50 (PC-3): > 2000 nM
- IC50 (HuP-T4): > 2000 nM
- IC50 (SK-MEL-30): > 2000 nM
- IC50 (LK-2): > 2000 nM
- IC50 (NCI-H2342): > 2000 nM
- IC50 (HCC1419): > 2000 nM
- IC50 (COLO-741): > 2000 nM
- IC50 (DBTRG-05MG): > 2000 nM
- IC50 (COR-L105): > 2000 nM
- IC50 (BCPAP): > 2000 nM
- IC50 (MEL-HO): > 2000 nM
- IC50 (GMS-10): > 2000 nM
- IC50 (CAL-120): > 2000 nM
- IC50 (NCI-H727): > 2000 nM
- IC50 (SKG-IIIa): > 2000 nM
- IC50 (HuCCT-1): > 2000 nM
- IC50 (PANC-03-27): > 2000 nM
- IC50 (IGR-1): > 2000 nM
- IC50 (A-427): > 2000 nM
- IC50 (EFO-21): > 2000 nM
- IC50 (FaDu): > 2000 nM
- IC50 (RCM-1): > 2000 nM
- IC50 (ACHN): > 2000 nM
- IC50 (KU-19-19): > 2000 nM
- IC50 (NCI-H441): > 2000 nM
- IC50 (Daoy): > 2000 nM
- IC50 (BPH-1): > 2000 nM
- IC50 (VM-CUB-1): > 2000 nM
- IC50 (CAKI-1): > 2000 nM
- IC50 (CAPAN-1): > 2000 nM
- IC50 (NCI-H630): > 2000 nM
- IC50 (OVCAR-5): > 2000 nM
- IC50 (HCC1937): > 2000 nM
- IC50 (P12-Ichikawa): > 2000 nM
- IC50 (NCI-H2170): > 2000 nM
- IC50 (SK-MEL-28): > 2000 nM
- IC50 (CHL-1): 1210 nM
- IC50 (NB7): 1250 nM
- IC50 (M14): > 2000 nM
- IC50 (BHY): > 2000 nM
- IC50 (Huh-7): > 2000 nM
- IC50 (Panc1005): > 2000 nM
- IC50 (MCF7): > 2000 nM
- IC50 (KYSE-140): > 2000 nM
- IC50 (786-0): > 2000 nM

From ChEMBL document CHEMBL1201861, “Genomics of Drug Sensitity in Cancer screening data, Wellcome Trust Sanger Institute”
